As a reminder, the inhibition is how much of the control response was suppressed.

The values that follow come from article PMC4097363, “Trace amines inhibit insect odorant receptor function through antagonism of the co-receptor subunit” (F1000Research, 2014).

Test [1] addresses Cqui\Orco (Culex quinquefasciatus, UniProt Q309I4). The test is described as follows: Antagonism of OLC12 activation of Orco in Xenopus oocytes. It counts as cell-based. As to conditions: for inhibition at 100 µM: Cqui\Orco activated by 30µM OLC12 (~EC5), 100µM of each amine, mean ± SEM, n = 3-10, read-out: inhibition of the OLC12 response; for IC50: read-out: IC 50 for inhibition of Cqui\Orco activation. How it is done:
(§1) Follicle cells were removed by treatment with collagenase B (Boehringer Mannheim) for 2 hours at room temperature. Capped cRNA encoding each OR subunit was generated using mMessage mMachine kits (Ambion). For heteromeric ORs, 25 ng of cRNA encoding each OR subunit was injected into Stage V-VI Xenopus oocytes. For expression of Orco homomers, 50 ng of cRNA was injected. Oocytes were incubated at 18°C in Barth's saline (in mM: 88 NaCl, 1 KCl, 2.4 NaHCO 3, 0.3 CaNO 3, 0.41 CaCl 2, 0.82 MgSO 4, 15 HEPES, pH 7.6, and 150µg/ml ceftazidime) for 2–5 days prior to electrophysiological recording.
(§2) Odorant and Orco ligand induced currents were recorded under two-electrode voltage clamp, using an automated parallel electrophysiology system (OpusExpress 6000A, Molecular Devices). Oocytes were perfused with ND96 (in mM: 96 NaCl, 2 KCl, 1 CaCl 2, 1 MgCl 2, 5 HEPES, pH 7.5). Orco ligands were prepared as 50 or 100 mM stock solutions in DMSO and then diluted into ND96 on the day of the experiment. Odorants were prepared as 100 mM stock solutions in DMSO and then diluted into ND96. Unless otherwise noted, applications were for 60 sec at a flow rate of 1.0 ml/min, with extensive washing in ND96 at 4.6 ml/min between applications. Micropipettes were filled with 3 M KCl and had resistances of 0.2–2.0 MΩ. The holding potential was -70 mV. Current responses, filtered (4-pole, Bessel, low pass) at 20 Hz (-3 db) and sampled at 100 Hz, were captured and stored using OpusXpress 1.1 software (Molecular Devices).
To screen for agonist activity, oocytes were exposed to 30 sec applications of candidate compounds with 5 min washes between applications ( Figure 2A). For the concentration-response protocol ( Table 1), applications were for 20 sec at a flow rate of 1.65 ml/min. To measure antagonist activity at Orco ( Figure 2B, 2C, Figure 3, Figure 4A and Figure 5A), oocytes were exposed to two 60 sec applications of the synthetic Orco agonist OLC12 (2-((4-Ethyl-5-(4-pyridinyl)-4H-1,2,4-triazol-3-yl)sulfanyl)-N-(4-isopropylphenyl)acetamide) with 4 min washes between applications. Oocytes were then exposed to a 90 sec application of antagonist candidate, immediately followed by a 60 sec co-application of antagonist candidate and OLC12. The current response in the presence of antagonist candidate was compared to the mean of the preceding two responses to OLC12 alone and is presented as a percentage.
Initial analysis of electrophysiological data was done using Clampfit 9.1 software (Molecular Devices). Curve fitting and statistical analyses were done using Prism 5 (Graphpad). Concentration-inhibition data were fit to the equation: I = I max/(1+ (X/IC 50) ^n) where I represents the current response at a given concentration of inhibitor, X; I max is the maximal response in the absence of inhibitor; IC 50 is the concentration of inhibitor present that still allows a half maximal response from odorant; n is the apparent Hill coefficient. Concentration-response data were fit to the equation: I = I max/(1+(EC 50/X) ^n) where I represents the current response at a given concentration of odorant, X; I max is the maximal response; EC 50 is the concentration of agonist yielding a half maximal response; n is the apparent Hill coefficient. Statistical significance (p<0.05) was assessed using a two-tailed unpaired t test, an F test, or a one-way analysis of variance followed by the Dunnett's post-test, as appropriate.

Test [2] deals with Agam\Orco+Agam\Or65 (Anopheles gambiae, UniProt Q7QCC7). In words: Inhibition of odorant activation of heteromeric OR in Xenopus oocytes. The settings on record: for IC50: IC 50 for inhibition of responses to eugenol; for inhibition of odorant activation of the OR: activated by 100nM eugenol, 10µM tryptamine or 100µM tyramine. It counts as cell-based. The procedure:
as §1, §2
To measure inhibition of odorant activation of heteromeric ORs ( Figures 4B, 4C, Figure 5B and Figure 6), oocytes were exposed to a 30 sec application of odorant followed by a 10 min wash. Oocytes were then exposed to a 90 sec application of tryptamine or tyramine, immediately followed by a 30 sec co-application of tryptamine or tyramine and odorant. The current response in the presence of antagonist candidate was compared to the preceding response to odorant alone and expressed as a percentage. […] For this reason, we then re-normalized antagonism data to the value obtained when the assay was run in the absence of antagonist candidate (sham). In the “sham” assay, oocytes were exposed to a 30 sec application of odorant followed by a 10 min wash and then exposed to a 90 sec application of ND96 (no antagonist candidate), immediately followed by a 30 sec application of odorant. The second odorant response was compared to the first response and expressed as a percentage. In Figure 4B, 4C, Figure 5B and Figure 6, the sham value for 100nM eugenol was 57 ± 3% (mean ± SEM, n = 3). In Figure 5B, the sham value for 10nM eugenol was 93 ± 4% (n = 4). In Figure 4B and C, the sham value for 1µM Z11-14:OAc was 82 ± 6% (n = 6) and the sham value for 150µM 2-phenylethanol was 92 ± 2% (n = 3). In Figure 6, the sham value for 3µM L-fenchone was 83 ± 1% (n = 3), the sham value for 40µM acetophenone was 92 ± 1% (n = 3), the sham value for 70µM geranyl acetate was 97 ± 1% (n = 3), the sham value for 10µM 6-methyl-5-hepten-2-one was 94 ± 2% (n = 3) and the sham value for 3µM 2-nonanone was 81 ± 1% (n = 3).
Initial analysis of electrophysiological data was done using Clampfit 9.1 software (Molecular Devices). Curve fitting and statistical analyses were done using Prism 5 (Graphpad). […]

For test [3], the system named is Onub\Orco+Onub\Or6. Described as above. It counts as cell-based, Ostrinia nubilalis. As to conditions: activated by 1µM Z11-14:OAc; 10µM tryptamine or 100µM tyramine. How it is done:
as §1
as §2, with “Current responses, filtered (4-pole, Bessel, low pass) at 20 Hz (-3 db) and sampled at 100 Hz, were captured and stored using OpusXpress 1.1 software (Molecular Devices).” left out

The structures appear in SMILES notation. Entries after “also recorded” stand apart in the source; their conditions may differ. Read-outs that look alike come from different tables or passages of the source.

Sequence of Agam\Orco+Agam\Or65 (Q7QCC7 whole entry): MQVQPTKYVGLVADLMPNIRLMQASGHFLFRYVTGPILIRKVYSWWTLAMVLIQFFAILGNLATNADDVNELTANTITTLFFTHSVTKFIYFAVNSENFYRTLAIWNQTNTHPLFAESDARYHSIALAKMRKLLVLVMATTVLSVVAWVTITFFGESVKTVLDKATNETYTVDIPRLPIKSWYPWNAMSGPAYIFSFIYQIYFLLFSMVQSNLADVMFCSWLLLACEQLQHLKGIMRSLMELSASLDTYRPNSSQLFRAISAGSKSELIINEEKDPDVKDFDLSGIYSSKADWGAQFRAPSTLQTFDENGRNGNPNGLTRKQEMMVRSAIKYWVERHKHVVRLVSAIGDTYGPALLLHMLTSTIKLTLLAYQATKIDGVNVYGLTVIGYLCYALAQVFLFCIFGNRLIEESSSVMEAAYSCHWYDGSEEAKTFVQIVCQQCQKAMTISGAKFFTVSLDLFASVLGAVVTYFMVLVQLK
Sequence of Cqui\Orco (Q309I4 entry or part of it): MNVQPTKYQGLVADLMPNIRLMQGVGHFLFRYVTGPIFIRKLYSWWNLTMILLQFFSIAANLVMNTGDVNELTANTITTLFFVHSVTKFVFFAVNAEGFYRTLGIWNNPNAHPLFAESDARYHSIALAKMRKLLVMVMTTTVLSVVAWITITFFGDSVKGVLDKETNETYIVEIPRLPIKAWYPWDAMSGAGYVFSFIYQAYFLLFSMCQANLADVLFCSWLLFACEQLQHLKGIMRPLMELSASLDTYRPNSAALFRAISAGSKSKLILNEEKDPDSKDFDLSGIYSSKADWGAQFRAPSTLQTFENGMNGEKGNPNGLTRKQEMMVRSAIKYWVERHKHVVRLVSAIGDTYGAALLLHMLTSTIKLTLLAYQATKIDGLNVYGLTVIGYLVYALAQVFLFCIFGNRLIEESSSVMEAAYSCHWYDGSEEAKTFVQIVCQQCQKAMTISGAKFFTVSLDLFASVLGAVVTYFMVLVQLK

With `NCCc1c[nH]c2ccccc12` [tryptamine], the inhibition at 100 µM in test [1] came to 92 ± 2%. Also, the “inhibition of OLC12 activation of Orco” value in test [1] (Cqui\Orco, 30µM OLC12, 10µM tryptamine) is “inhibited OLC12 activation of Orco from each of these three insect species”. For the same compound, the “mechanism of antagonism of Cqui\Orco” value in test [1] (OLC12 increased from 30µM to 100µM) is “competitive antagonist”. In addition, the IC50 in test [1] (activated by 30µM OLC12) came to 4.7 ± 0.7 µM; in test [1] (activated by 100µM OLC12), 143 ± 18 µM; in test [2] (Agam\Orco+Agam\Or65, 10nM eugenol), 3.1 ± 0.4 µM; in test [2] (Agam\Orco+Agam\Or65, 100nM eugenol), 3.2 ± 0.3 µM. Also, the “mechanism of inhibition of odorant activation” value in test [2] (Agam\Orco+Agam\Or65, 10nM vs 100nM eugenol) is recorded as “non-competitively inhibits odorant activation”. The “inhibition of odorant activation of the OR” value in test [2] is listed as “substantial inhibition of each receptor; also recorded: able to inhibit odorant activation of the receptor”; in test [3], “substantial inhibition of each receptor”.

Consider `NCCc1ccc(O)cc1` [tyramine], for which the “less potent than tryptamine (IC50 ratio)” value in test [1] (Cqui\Orco activated by 30µM OLC12) is 33 fold. In test [1], the inhibition at 100 µM is 40 ± 5%. The IC50 in test [1] (activated by 30µM OLC12) came out at 157 ± 22 µM. Also, the “inhibition of odorant activation of the OR” value is “able to reduce odorant activation of these ORs, but was less effective than tryptamine; also recorded: able to inhibit odorant activation of each of these receptors, but was less effective than tryptamine” in test [2] and “able to reduce odorant activation of these ORs, but was less effective than tryptamine” in test [3].
